Test system: 855422-203-R-J1-PDC spheroids with HUVEC/MSC, viability
Assay: Anticancer human tumor 855422-203-R-J1-PDC patient-derived bladder carcinoma cell line growth inhibition [PI3K]
Conditions: for viability, T/C: stronger effect = lower value
In short: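 Multi-cell spheroids combine tumor cells with HUVEC and human MSCs, treated with targeted agents alone or with inavolisib, alpelisib, duvelisib or copanlisib. Concentrations fall in half-log steps from at or near clinical Cmax, or from 10 microM where Cmax is unknown; viability read-out.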

[1] = curve of first compound, second compound 0.0316 µM
[2] = curve of first compound, second compound 0.1 µM
[3] = curve of first compound, second compound 0.316 µM
[4] = curve of first compound, second compound 1 µM
[5] = second compound 0.0316 µM, first compound 0.0316 µM
[6] = second compound 0.0316 µM, first compound 0.1 µM
[7] = second compound 0.1 µM, first compound 0.0316 µM
[8] = second compound 0.1 µM, first compound 0.1 µM
[9] = second compound 0.316 µM, first compound 0.0316 µM
[10] = second compound 0.316 µM, first compound 0.1 µM
[11] = second compound 1 µM, first compound 0.0316 µM
[12] = second compound 1 µM, first compound 0.1 µM
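Also: agents incubated with spheroids for one week before read-out.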
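For viability, T/C in this document: 100% = DMSO vehicle-treated control wells.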

CCCS(=O)(=O)Nc1ccc(F)c(C(=O)c2c[nH]c3ncc(-c4ccc(Cl)cc4)cc23)c1F + CC(Nc1ncnc2nc[nH]c12)c1cc2cccc(Cl)c2c(=O)n1-c1ccccc1
IC50 [1]: 3.7 µM | IC50 [2]: 3.69 µM | IC50 [3]: 4.35 µM | IC50 [4]: 4.64 µM | IC50 (curve of first compound, second compound 3.16 µM): 4.24 µM | IC50 (curve of first compound, second compound 10 µM): 3.69 µM | viability, T/C [5]: 118% | viability, T/C [6]: 88.6% | viability, T/C (second compound 0.0316 µM, first compound 0.316 µM): 102% | viability, T/C (second compound 0.0316 µM, first compound 1 µM): 85.9% | viability, T/C (second compound 0.0316 µM, first compound 3.16 µM): 59% | viability, T/C (second compound 0.0316 µM, first compound 10 µM): 0.26% | viability, T/C [7]: 110% | viability, T/C [8]: 109% | viability, T/C (second compound 0.1 µM, first compound 0.316 µM): 103% | viability, T/C (second compound 0.1 µM, first compound 1 µM): 88.1% | viability, T/C (second compound 0.1 µM, first compound 3.16 µM): 58.1% | viability, T/C (second compound 0.1 µM, first compound 10 µM): 0.13% | viability, T/C [9]: 100% | viability, T/C [10]: 97.9% | viability, T/C (second compound 0.316 µM, first compound 0.316 µM): 90.7% | viability, T/C (second compound 0.316 µM, first compound 1 µM): 88.4% | viability, T/C (second compound 0.316 µM, first compound 3.16 µM): 70.4% | viability, T/C (second compound 0.316 µM, first compound 10 µM): 0.12% | viability, T/C [11]: 92.8% | viability, T/C [12]: 98.2% | viability, T/C (second compound 1 µM, first compound 0.316 µM): 98% | viability, T/C (second compound 1 µM, first compound 1 µM): 91.6% | viability, T/C (second compound 1 µM, first compound 3.16 µM): 75% | viability, T/C (second compound 1 µM, first compound 10 µM): 0.2% | viability, T/C (second compound 3.16 µM, first compound 0.0316 µM): 89.2% | viability, T/C (second compound 3.16 µM, first compound 0.1 µM): 100% | viability, T/C (second compound 3.16 µM, first compound 0.316 µM): 99.7% | viability, T/C (second compound 3.16 µM, first compound 1 µM): 78.2% | viability, T/C (second compound 3.16 µM, first compound 3.16 µM): 70% | viability, T/C (second compound 3.16 µM, first compound 10 µM): 0.61% | viability, T/C (second compound 10 µM, first compound 0.0316 µM): 87% | viability, T/C (second compound 10 µM, first compound 0.1 µM): 83.4% | viability, T/C (second compound 10 µM, first compound 0.316 µM): 77.8% | viability, T/C (second compound 10 µM, first compound 1 µM): 76.9% | viability, T/C (second compound 10 µM, first compound 3.16 µM): 58.2% | viability, T/C (second compound 10 µM, first compound 10 µM): 0.42%

C[C@@H](NC(=O)c1ncnc(N)c1Cl)c1ncc(C(=O)Nc2cc(C(F)(F)F)c(Cl)cn2)s1
viability, T/C (compound 0.0316 µM): 107% [middle of 4 runs] | viability, T/C (compound 0.1 µM): 99.5% [middle of 4 runs] | viability, T/C (compound 0.316 µM): 118% [middle of 4 runs] | viability, T/C (compound 3.16 µM): 122% [middle of 4 runs] | viability, T/C (compound 10 µM): 120% [middle of 4 runs] | IC50 (curve of compound): > 10 µM

COc1c(OCCCN2CCOCC2)ccc2c3n(c(=NC(=O)c4cnc(N)nc4)nc12)CCN3
viability, T/C (compound 0.00316 µM): 100% [middle of 8 runs] | viability, T/C (compound 0.01 µM): 92% [middle of 8 runs] | viability, T/C (compound 0.0316 µM): 71.8% [middle of 8 runs] | viability, T/C (compound 0.1 µM): 30.5% [middle of 8 runs] | viability, T/C (compound 0.316 µM): 9.42% [middle of 8 runs] | viability, T/C (compound 1 µM): 4.6% [middle of 8 runs] | IC50 (compound alone, run of 05/09/2023): 58.2 nM [middle of 8 runs]

CC(=O)c1c(C)c2cnc(Nc3ccc(N4CCNCC4)cn3)nc2n(C2CCCC2)c1=O + CC(Nc1ccc2c(c1)OCCn1cc(N3C(=O)OCC3C(F)F)nc1-2)C(N)=O
IC50 (curve of first compound, second compound 0.00316 µM): > 0.1 µM | IC50 (curve of first compound, second compound 0.01 µM): > 0.1 µM | IC50 [1]: > 0.1 µM | IC50 [2]: 0.0755 µM | IC50 [3]: 0.0106 µM | IC50 [4]: < 0.000316 µM | viability, T/C (second compound 0.00316 µM, first compound 0.000316 µM): 110% | viability, T/C (second compound 0.00316 µM, first compound 0.001 µM): 88.9% | viability, T/C (second compound 0.00316 µM, first compound 0.00316 µM): 109% | viability, T/C (second compound 0.00316 µM, first compound 0.01 µM): 84.1% | viability, T/C (second compound 0.00316 µM, first compound 0.0316 µM): 97.6% | viability, T/C (second compound 0.00316 µM, first compound 0.1 µM): 74.2% | viability, T/C (second compound 0.01 µM, first compound 0.000316 µM): 99% | viability, T/C (second compound 0.01 µM, first compound 0.001 µM): 87% | viability, T/C (second compound 0.01 µM, first compound 0.00316 µM): 98.3% | viability, T/C (second compound 0.01 µM, first compound 0.01 µM): 86% | viability, T/C (second compound 0.01 µM, first compound 0.0316 µM): 98% | viability, T/C (second compound 0.01 µM, first compound 0.1 µM): 75.8% | viability, T/C (second compound 0.0316 µM, first compound 0.000316 µM): 84.1% | viability, T/C (second compound 0.0316 µM, first compound 0.001 µM): 84% | viability, T/C (second compound 0.0316 µM, first compound 0.00316 µM): 86.3% | viability, T/C (second compound 0.0316 µM, first compound 0.01 µM): 85.1% | viability, T/C [5]: 83.5% | viability, T/C [6]: 60.8% | viability, T/C (second compound 0.1 µM, first compound 0.000316 µM): 72.1% | viability, T/C (second compound 0.1 µM, first compound 0.001 µM): 78.4% | viability, T/C (second compound 0.1 µM, first compound 0.00316 µM): 62.1% | viability, T/C (second compound 0.1 µM, first compound 0.01 µM): 73.7% | viability, T/C [7]: 72% | viability, T/C [8]: 43.2% | viability, T/C (second compound 0.316 µM, first compound 0.000316 µM): 54.2% | viability, T/C (second compound 0.316 µM, first compound 0.001 µM): 51.3% | viability, T/C (second compound 0.316 µM, first compound 0.00316 µM): 57.4% | viability, T/C (second compound 0.316 µM, first compound 0.01 µM): 47.9% | viability, T/C [9]: 44.4% | viability, T/C [10]: 29.9% | viability, T/C (second compound 1 µM, first compound 0.000316 µM): 37% | viability, T/C (second compound 1 µM, first compound 0.001 µM): 36% | viability, T/C (second compound 1 µM, first compound 0.00316 µM): 31.9% | viability, T/C (second compound 1 µM, first compound 0.01 µM): 30.6% | viability, T/C [11]: 31.2% | viability, T/C [12]: 15.4%

Source: PubChem BioAssay AID1963967 (Molecular Pharmacology Branch, DTP, NCI, 2024)
